How the values were obtained:
[1] = tested on: mitochondrial DNA encoded gene expression; assay: Microarray analysis of mitochondrial DNA encoded gene expression in response to 3-nitropropionic acid; format: cell-based; settings: 3 NPA treatments at 6, 12 and 26 hours; inhibition of Complex II (succinic dehydrogenase)
Protocol: FIGS. 5A-5B. Analysis of mitochondrial DNA encoded gene expression. FIG. 5A—response to 3-nitropropionic acid, an inhibitor of Complex II—succinic dehydrogenase. […] FIG. 5B-analysis of mitochondrial DNA encoded gene expression in trypanosome infected heart tissue.
Analysis of mitochondrial DNA encoded gene expression in response to 3-nitropropionic acid (3NPA), an inhibitor of Complex II—succinic dehydrogenase was performed (FIG. 5A, Table 5). The 3 NPA treatments were at 6, 12 and 26 hours.

[2] = tested on: mouse mitochondrial genes in AML-12 mouse liver cells; assay: Microarray analysis of the effects of rotenone on expression of mouse mitochondrial genes; format: cell-based; settings: AML-12 mouse liver cells in culture
Description: FIG. 4. The effects of rotenone, an inhibitor of mitochondrial Complex I, on the expression of mouse mitochondrial genes in AML-12 mouse liver cells in culture.
The effects of rotenone, an inhibitor of mitochondrial Complex I, on the expression of mouse mitochondrial genes in AML-12 mouse liver cells in culture were examined (FIG. 4; Table 4). […] Spots A1-G11 represent mitochondrial related nuclear encoded genes; spots G12-H12 represent the 13 genes encoded by mitochondrial DNA. It should be noted that in subsequent microarray designs (constructions) the mitochondrial DNA encoded genes G12-H12 were removed from the filters and arrayed separately. Thus, the G12-H12 spots were replaced with nuclear encoded genes. […] E4 and E5 represent the […] and 16S mitochondrial ribosomal RNAs.

Structure (SMILES): O=C(O)CC[N+](=O)[O-] [3-nitropropionic acid]
- synthesis of mitochondrial encoded mRNAs and ribosomal RNAs [1]: stimulates the synthesis of mitochondrial encoded mRNAs and the 23S and 16S ribosomal RNAs

Structure (SMILES): C=C(C)[C@H]1Cc2c(ccc3c2O[C@@H]2COc4cc(OC)c(OC)cc4[C@@H]2C3=O)O1 [rotenone]
- mRNA pool levels of mitochondrial-related genes on the microarray ([2]; genes named: A11 ATP synthase lipid binding proteins, B8 ADP, ATP carrier protein, B9 cytochrome C oxidase chain VIIa, D12 chaperonin 10, E12 pyruvate carboxylase, H7 Complex I: Protein Dehydrogenase chain 3): up-regulated
- production of mRNAs of Complex I proteins (H7, H10) ([2]; inhibition of Complex I, suggested compensatory response): may stimulate the production of mRNAs of Complex I proteins (H7, H10)

From patent publication US20080187911A1, “Methods and compositions for analysis of mitochondrial-related gene expression” (priority 2003, published 2008)
